Results taken from patent US10041937B2, “Macrophage identification agent, and identification method, sorting method, evaluation method, screening method and kit using the macrophage identifier agent” (CANON KABUSHIKI KAISHA, priority 2013, dated 2018).

Legend:
[1] = test system: M1 macrophages and M2 macrophages differentiated from THP-1 cells; test: Identification of macrophage subtypes differentiated from human cell line THP-1; type: cell-based; conditions: THP-1 derived M1 and M2
Description: The fluorescent signals derived from the compounds (3), (4), (6), (7), (9), (11) to (13), (15), (17), (19) to (26), (28), (30) to (33), (35), (36), (38), (42) to (45), (48) to (62), (65), (67), (74) to (76), (82), (83) and (85) and the comparative compounds (1) and (2) were measured in channels suitable to the respective compounds. Histograms were prepared by plotting fluorescence intensities obtained in the respective channels on the abscissa and plotting the numbers of cells at each fluorescence intensity on the ordinate. A difference between a fluorescence intensity (FM1) at a peak top of the histogram of the M1 macrophage and a fluorescence intensity (FM2) at a peak top of the histogram of the M2 macrophage is divided by a sum of a peak width (WM1) of the histogram of the M1 macrophage and a peak width (WM2) of the histogram of the M2 macrophage, so as to obtain a resolution R, which was used as an index of the identification ability for a subtype (see the following expression (1)). Resolution R=|FM1−FM2|/(WM1+WM2) Expression (1)
Based on the thus obtained values of the resolution R, the identification abilities for the subtypes of the compounds (3), (4), (6), (7), (9), (11) to (13), (15), (17), (19) to (26), (28), (30) to (33), (35), (36), (38), (42) to (45), (48) to (62), (65), (67), (74) to (76), (82), (83) and (85) and the comparative compounds (1) and (2) were evaluated as any of A to C according to the following criteria, and if the resolution R was 0.15 or more, the compound was determined to be good in the subtype identification.
The subtypes were identified by using the compound (1) in the same manner as in Example 1 except that the macrophage subtypes differentiated from the mouse bone marrow cells were changed to macrophage subtypes differentiated from a cell line established from human acute monocytic leukemia.
The culture of subtypes was performed with reference to NPL 10. Specifically, THP-1 cells purchased from JCRB Cell Bank of National Institute of Biomedical Innovation, that is, a cell line established from human acute monocytic leukemia, were subcultured several times, and the resultant cells were dispersed to a concentration of 5.0×10^5/mL in an RPMI1640 containing 10% FBS and 1% P/S, and 5.0×10^6 cells were seeded in a 100 mm dish. The monocytes were differentiated into macrophages by incubating the resultant in the presence of 5% CO2 at 37° C. for 2 days with 500 ng of PMA added thereto. After exchanging the medium, by adding 200 ng of interferon-γ and 1 μg of polyliposaccharide (both manufactured by Pepro Tech) to the medium, the cells were differentiated to the subtype M1. Besides, by adding 200 ng of IL-4 and IL-13, the cells were differentiated to the subtype M2. After incubation performed in the presence of 5% CO2 at 37° C. for 24 hours, the resultant was rinsed with PBS, and PBS containing 0.25% trypsin and 1 mM EDTA (ethylenediaminetetraacetic acid) was used for collecting, from the dish, the macrophages having been differentiated to the subtypes M1 and M2.
Specifically, fluorescent signals derived from the compounds (1) (3) (4) (12) and (15) were measured by using the channels which are appropriate for each of the compounds and the identification abilities for the subtypes of the compounds were evaluated based on the values of the resolution R.

[2] = test system: M1 macrophages and M2 macrophages differentiated from mouse bone marrow cells; test: Subtype identification by staining and flow cytometry of M1 and M2 macrophages differentiated from mouse bone marrow cells; type: cell-based, Balb/c mouse; conditions: for Resolution ratio R: M1 vs M2 macrophages from mouse bone marrow cells; for Evaluation of macrophage subtype identification: class based on resolution R; for Peak position of M1 macrophage: mouse bone marrow-derived M1 macrophages; for Peak position of M1 macrophage / Peak position of M2 macrophage: channel listed per compound; for Peak position of M2 macrophage: mouse bone marrow-derived M2 macrophages
In short: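 Balb/c mouse bone marrow cells were differentiated to macrophages with 50 ng/mL M-CSF over two 3–4-day periods, then polarized for 3 days to M1 (interferon-γ plus polyliposaccharide) or M2 (IL-4). Live cells (aqua dye-negative) were analysed by flow cytometry; resolution R = |FM1−FM2|/(WM1+WM2) from histogram peak positions and widths indexed subtype discrimination.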

[3] = test system: M1 macrophages and M2 macrophages differentiated from RAW264.7 cells; test: Identification of macrophage subtypes differentiated from mouse cell line RAW264.7; type: cell-based; conditions: RAW264.7 derived M1 and M2
Description: The subtypes were identified by using the compound (1) in the same manner as in Example 1 except that the macrophage subtypes differentiated from the mouse bone marrow cells were changed to macrophage subtypes differentiated from a cell line established from mouse monocytic leukemia.
The culture of subtypes was performed with reference to NPL 9. Specifically, RAW264.7 cells purchased from American Type Culture Collection, that is, a cell line established from mouse monocytic leukemia, were subcultured several times, and the resultant cells were dispersed to a concentration of 3.3×10^4/mL in a D-MEM containing 10% FBS, 1% P/S and 1% MEM-NEAA, and 3.3×10^5 cells were seeded in a 100 mm dish. The cells were grown by incubation performed in the presence of 5% CO2 at 37° C. After 2 to 4 days, it was confirmed that an area of about to 70% of the bottom of the dish had been covered by the cells, the medium was then exchanged, and by adding 200 ng of interferon-γ and 1 μg of polyliposaccharide (both manufactured by Pepro Tech) to the medium, the cells were differentiated to the subtype M1. Besides, by adding 100 ng of IL-4, the cells were differentiated to the subtype M2. […]
A histogram was prepared by plotting fluorescence intensity obtained in the FITC channel on the abscissa and plotting the number of cells at each fluorescence intensity on the ordinate, which is shown in FIG. 9.

[4] = test system: mixture of the M1 macrophages and the M2 macrophages; test: Sorting of subtypes from a mixture of M1 and M2 macrophages with an FACS apparatus; type: cell-based, mouse; conditions: compound 1 μM
[5] = test system: M1 macrophages and M2 macrophages; test: Analysis of export inhibition of the identification agent by a test substance (FTC, MK-571, DIDS); type: cell-based, mouse
Description: Besides, Fumitremorgin C (manufactured by Sigma-Aldrich, hereinafter referred to as FTC) was added thereto, as a substance for inhibiting export of the compound (1) having been imported into cells, to a concentration of 10 μM, and the resultant was incubated at 37° C. for 30 minutes. Thereafter, the tube was centrifuged at 180 G for 10 minutes to remove the supernatant, and then, 1 mL of a HBSS buffer containing the FTC in a concentration of 10 μM was added thereto to suspend the cells, and the resultant was further incubated at 37° C. for 30 minutes.
Furthermore, each tube was centrifuged at 180 G for 10 minutes to remove the supernatant, the cells were suspended by adding the dye aqua for identifying dead cells thereto, and the resultant was incubated at 4° C. for 10 minutes. Thereafter, the tube was centrifuged at 180 G for 10 minutes to remove the supernatant, and then, the cells were suspended in a FACS buffer and analyzed by using a FACSCanto (trademark) II flow cytometry apparatus manufactured by BD.
The analysis was performed on a cell population showing a low signal for the aqua, so as to analyze a cell population from which dead cells were eliminated.
The analysis was performed in the same manner as in Example 57 except that the FTC was not added.
Thereafter, the tube was centrifuged at 180 G for 10 minutes to remove the supernatant, and then, 1 mL of a HBSS buffer containing the MK-571 in a concentration of 10 μM was added thereto to suspend the cells, and the resultant was further incubated at 37° C. for 30 minutes.
The analysis was performed in the same manner as in Example 79 except that the MK-571 was not added. […] The degree of the enhancement of the peak intensity caused by adding the MK-571 was evaluated by calculating the resolution R described above by using peak intensities in histograms prepared with and without adding the MK-571.
Thereafter, the tube was centrifuged at 180 G for 10 minutes to remove the supernatant, and then, 1 mL of a HBSS buffer containing the DIDS in a concentration of 10 μM was added thereto to suspend the cells, and the resultant was further incubated at 37° C. for 30 minutes.

[6] = general formula (10) dyes (Table 8)
[7] = general formula (11) dyes (Table 9)

CCN(CC)c1ccc2cc(-c3nc4ccccc4s3)c(=O)oc2c1 [compound (129)]
subtype more strongly stained [1]: the M1 macrophages were stained more strongly by the compound (129) than the M2 macrophages
Resolution ratio R [2, 6]: 0.709
Evaluation of macrophage subtype identification [2, 6]: A (The compound is very good in the subtype identification (namely, the resolution R is 0.5 or more))
Peak position of M1 macrophage [2, 6]: 31.0
Peak position of M2 macrophage [2, 6]: 13.0
subtype more strongly stained [3]: the M1 macrophages were stained more strongly by the compound (129) than the M2 macrophages

CCC1=C(C)C2=C(C)c3c(C)c(CC)c(C)n3[B-](F)(F)[N+]2=C1C [compound (139)]
subtype more strongly stained [1]: the M1 macrophages were stained more strongly by the compound (139) than the M2 macrophages
Resolution ratio R [2, 7]: 1.023
Evaluation of macrophage subtype identification [2, 7]: A (The compound is very good in the subtype identification (namely, the resolution R is 0.5 or more))
Peak position of M1 macrophage [2, 7]: 220
Peak position of M2 macrophage [2, 7]: 47.8
subtype more strongly stained ([2]; two compounds used in combination, each 1 μM): the M1 macrophages show higher fluorescence intensity in the FITC channel than the M2 macrophages
sorting of identified M1 and M2 macrophages ([4]; FACS apparatus): could be each sorted with an FACS apparatus
subtype more strongly stained ([4]; mixed M1 and M2 macrophages): staining the M1 macrophages more strongly than the M2 macrophages

O=S(=O)(O)c1cc(N=C=S)ccc1C=Cc1ccc(N=C=S)cc1S(=O)(=O)O [DIDS, 4,4′-diisothiocyanatostilbene-2,2′-disulfonic acid]
enhancement of the fluorescence intensity caused by inhibition of export of the compound (139) ([5]; DIDS 10 μM, compound (139) 1 μM): observed merely in the M1 macrophages

CN(C)C(=O)CCSC(SCCC(=O)O)c1cccc(/C=C/c2ccc3ccc(Cl)cc3n2)c1 (stereo not shown) [MK-571]
degree of the enhancement of the peak intensity (resolution R with and without MK-571) ([5]; M1 macrophages, MK-571 10 μM, compound (113) 1 μM): 0.406
degree of the enhancement of the peak intensity (resolution R with and without MK-571) ([5]; M1 macrophages, MK-571 10 μM, compound (120) 1 μM): 0.739
degree of the enhancement of the peak intensity (resolution R with and without MK-571) ([5]; M2 macrophages, MK-571 10 μM, compound (113) 1 μM): 0.438
degree of the enhancement of the peak intensity (resolution R with and without MK-571) ([5]; M2 macrophages, MK-571 10 μM, compound (120) 1 μM): 0.730
enhancement of the fluorescence intensity caused by inhibition of export of the compound (113) ([5]; MK-571 10 μM, compound (113) 1 μM): observed in both the M1 macrophages and the M2 macrophages
enhancement of the fluorescence intensity caused by inhibition of export of the compound (120) ([5]; MK-571 10 μM, compound (120) 1 μM): observed in both the M1 macrophages and the M2 macrophages

COc1ccc2c3c([nH]c2c1)[C@H](C=C(C)C)N1C(=O)[C@@H]2CCCN2C(=O)[C@@H]1C3 [FTC, Fumitremorgin C]
enhancement of the fluorescence intensity caused by inhibition of export of the compound (1) ([5]; FTC 10 μM, compound (1) 1 μM): observed merely in the M2 macrophages
